Columns and labels:
STZ DNP rats [1] = test: Mechanical allodynia rescue assay (Von Frey paw withdrawal threshold), Example B1; type: in vivo, Sprague Dawley rats; design: key to Efficacy: rescue of mechanical allodynia behavior as measured by paw withdrawal threshold: NS indicates treatment did not significantly affect paw withdrawal threshold vs disease control.; + indicates p < 0.05 vs disease control.; ++ indicates p < 0.01 vs disease control.; +++ indicates p < 0.001 vs disease control; details: for Efficacy: rescue of mechanical allodynia behavior as measured by paw withdrawal threshold: study day 28 after 14 days of treatment, p vs disease control; for rescue of the mechanical allodynia behavior as measured by paw withdrawal threshold: STZ DNP rats
From the text: Hyperglycemic rats consistently develop neuropathic pain-associated behaviors including mechanical allodynia. Allodynia refers to a type of neuropathic pain characterized by increased sensitivity to stimuli that are not normally painful. Mechanical allodynia is quantified in rats by determination of the force required to induce a withdrawal of the paw and is negatively associated with allodynia such that, the lower the force required to induce paw withdrawal, the greater the pain behavior.
(§1) A series of studies were performed to determine the ability of HGF/MET positive modulator compounds to reduce the mechanical allodynia pain behaviors in hyperglycemic rats. A single dose of STZ (55 mg/kg via intravenous (IV)) was administered to induce a Type I diabetic hyperglycemia in male Sprague Dawley rats. Hyperglycemia was confirmed 4 days after STZ administration, with blood glucose levels above 200 mg/dL considered successful model induction. 14 days after disease induction, test compound treatment was initiated and continued as daily compound administration over the remaining course of the study. Route and dose for each compound were determined by pharmacokinetic and distribution modelling. Control groups included animals with no diabetic induction (Sham control), animals with diabetes but treated only with formulation vehicle (DNP (diabetic peripheral neuropathy) control), and disease animals treated with pregabalin (30 mg/kg via PO), which is known to reduce neuropathic pain behaviors.
(§2) Changes to neuropathic pain behaviors were assessed after 14 days of compound treatment on study day 28. Mechanical allodynia was tested by placing each animal on an elevated wire grid and stimulating the plantar surface of the right rear paw with a series of filaments corresponding to increasing orders of force, reaching a maximum force of 60 grams (Aesthesio manual Von Frey filaments). The force of the filament that causes paw withdrawal was considered the paw withdrawal threshold in grams. Pain sensitivity in response to thermal hyperalgesia was determined by using hot plate method and represented as paw withdrawal latency (PWL). Rats were placed on the hot plate (52.5° C.), and the time taken to show the nocifensive behavior (either licking or jumping) of any of their paws was recorded. Statistical comparison of treatment groups to DNP control groups was performed by one-way ANOVA followed by Dunnett's multiple comparisons test.

STZ DNP rats [2] = test: Thermal hyperalgesia rescue assay (hot plate paw withdrawal latency), Example B1; type: in vivo, Sprague Dawley rats; design: key to Efficacy: rescue of thermal hyperalgesia behavior as measured by paw withdrawal latency: NS indicates treatment did not significantly affect paw withdrawal latency vs disease control.; + indicates p < 0.05 vs disease control.; ++ indicates p < 0.01 vs disease control.; +++ indicates p < 0.001 vs disease control; details: for Efficacy: rescue of thermal hyperalgesia behavior as measured by paw withdrawal latency: study day 28 after 14 days of treatment, hot plate 52.5° C., p vs disease control; for rescue of thermal allodynia behavior as measured by paw withdrawal latency: STZ DNP rats
Protocol: as §1, §2

[3] = tested on: neuron-Schwann cell co-cultures injured with cisplatin; test: Sensory neurite extension and myelination in cisplatin-injured primary dorsal root ganglia cultures; type: cell-based, rat; design: key to Significant promotion of Neurite Network Extension of Sensory Neurons / Significant promotion of Myelination of Sensory neurons by Schwann Cells: “NS” indicates the treatment did not have a significant effect; “+” indicates the treatment had a significant effect; details: for Significant promotion of Myelination of Sensory neurons by Schwann Cells / Significant promotion of Neurite Network Extension of Sensory Neurons: +Cisplatin injury (10 μg/ml, 24 hours), vs Cisplatin-treated group
Protocol: (§3) To assess the effects of test compound treatment on these structures central to neuropathic pathology, peripheral sensory neurons were modeled using dissociated primary cultures of neurons and Schwann cells collected from fetal rats. Fetal rats were collected from pregnant females after 15 days of gestation, and the dorsal root ganglion was dissociated via trypsin digestion and mechanical disruption. The resulting cells were plated and allowed to grow for 7 days. On day 7 in culture, ascorbic acid at a concentration of 50 μM was added to the culture to promote myelination of sensory neurons by Schwann cells.
To model the effects of neuropathic injury in sensory neurons and associated Schwann cells, cultures were injured with the chemotherapy drug cisplatin. These cultures were prepared identically to those described above. In this system, Compound 5a, HGF, and β-estradiol treatments began on culture day 19. Also on culture day 19, cisplatin (10 μg/ml) was added to the cultures for 24 hours. On culture day 20, cisplatin was removed from the media while test compound treatments were replaced for 24 hours. On day 21 in culture, cells were fixed and processed for immunodetection as described above.
(§4) 30 fluorescent images were captured for each treatment group and images were quantified by automated image analysis. Neurite network extension was quantified as the total length of MAP2-positive neurites per cell measured in μm. Myelination by Schwann cells was quantified by the area of overlap between MAP2-positive neurites and MAG-positive myelin wrapping measured in μm^2. Statistical analysis was performed as a one-way ANOVA with Fisher's LSD post-test against either vehicle- or Cisplatin-treated groups respectively.

[4] = tested on: neuron-Schwann cell co-cultures; test: Sensory neurite extension and myelination in healthy primary dorsal root ganglia cultures; type: cell-based, rat; design: key to Significant promotion of Neurite Network Extension of Sensory Neurons / Significant promotion of Myelination of Sensory neurons by Schwann Cells: “NS” indicates the treatment did not have a significant effect; “+” indicates the treatment had a significant effect; details: for Significant promotion of Myelination of Sensory neurons by Schwann Cells / Significant promotion of Neurite Network Extension of Sensory Neurons: Healthy cultures, vs vehicle
Protocol: as §3
To model the effects of Compound 5a in the normal peripheral nervous system, neuron-Schwann cell co-cultures were treated with Compound 5a in combination with low doses of recombinant hepatocyte growth factor (HGF). On day 8 in culture, experimental treatments were added to culture media. These treatments included HGF with or without Compound 5a. Some cultures were treated with the steroid hormone B-estradiol to serve as a positive control. Treatments were applied every other day, and on day 21 in culture the cultures were fixed with ethanol and processed for immunodetection of both microtubule-associate protein 2 (MAP2) to reveal neurons and their neurites as well as myelin-associated glycoprotein (MAG) to reveal Schwann cells and the extent of their myelination of cultured neurites. Cells were counterstained with Hoechst DNA dye to identify individual cells.
as §4

[5] = injured cultures, positive control β-estradiol
[6] = healthy cultures, positive control β-estradiol
[7] = injured cultures, HGF alone at either 0.05 or 5 ng/ml
[8] = healthy cultures, HGF alone at either 0.05 or 5 ng/ml

Molecule: CCC(C)CN1CC2N(C(=O)c3ccc(OC(F)F)cc3)CCC(=O)N2[C@@H](C)C1=O (stereo partly shown) [Compound 2a]
- Efficacy: rescue of mechanical allodynia behavior as measured by paw withdrawal threshold (STZ DNP rats [1]; 0.00625 mg/kg PO daily): + (+ indicates p < 0.05 vs disease control.)
- Efficacy: rescue of mechanical allodynia behavior as measured by paw withdrawal threshold (STZ DNP rats [1]; 0.025 mg/kg PO daily): ++ (++ indicates p < 0.01 vs disease control.)
- Efficacy: rescue of mechanical allodynia behavior as measured by paw withdrawal threshold (STZ DNP rats [1]; 0.1 mg/kg PO daily): +++ (+++ indicates p < 0.001 vs disease control.)
- Efficacy: rescue of mechanical allodynia behavior as measured by paw withdrawal threshold (STZ DNP rats [1]; 1 mg/kg PO daily): +++ (+++ indicates p < 0.001 vs disease control.)
- rescue of the mechanical allodynia behavior as measured by paw withdrawal threshold (STZ DNP rats [1]): significant rescue
- Efficacy: rescue of thermal hyperalgesia behavior as measured by paw withdrawal latency (STZ DNP rats [2]; 0.00625 mg/kg PO daily): + (+ indicates p < 0.05 vs disease control.)
- Efficacy: rescue of thermal hyperalgesia behavior as measured by paw withdrawal latency (STZ DNP rats [2]; 0.025 mg/kg PO daily): NS
- Efficacy: rescue of thermal hyperalgesia behavior as measured by paw withdrawal latency (STZ DNP rats [2]; 0.1 mg/kg PO daily): ++ (++ indicates p < 0.01 vs disease control.)
- Efficacy: rescue of thermal hyperalgesia behavior as measured by paw withdrawal latency (STZ DNP rats [2]; 1 mg/kg PO daily): NS
- rescue of thermal allodynia behavior as measured by paw withdrawal latency (STZ DNP rats [2]): significant rescue

Molecule: C[C@]12CC[C@@H]3c4ccc(O)cc4CC[C@H]3[C@@H]1CC[C@@H]2O [β-estradiol, reference compound]
- Significant promotion of Myelination of Sensory neurons by Schwann Cells ([3]; β-estradiol 150 nM): +
- Significant promotion of Neurite Network Extension of Sensory Neurons ([3]; β-estradiol 150 nM): +
- myelination of sensory neurons by Schwann cells [3, 5]: significantly promoting
- neurite network extension [3, 5]: significantly promoting
- Significant promotion of Myelination of Sensory neurons by Schwann Cells ([4]; β-estradiol 150 nM): +
- Significant promotion of Neurite Network Extension of Sensory Neurons ([4]; β-estradiol 150 nM): +
- myelination of sensory neurons by Schwann cells [4, 6]: significantly promoting
- neurite network extension [4, 6]: significantly promoting

Molecule: CCC(C)CN1CC2N(Cc3ccc(OC(F)F)cc3)CCC(=O)N2[C@@H](C)C1=O (stereo partly shown) [Compound 6a]
- Efficacy: rescue of mechanical allodynia behavior as measured by paw withdrawal threshold (STZ DNP rats [1]; 0.156 mg/kg PO daily): NS
- Efficacy: rescue of mechanical allodynia behavior as measured by paw withdrawal threshold (STZ DNP rats [1]; 0.625 mg/kg PO daily): + (+ indicates p < 0.05 vs disease control.)
- Efficacy: rescue of mechanical allodynia behavior as measured by paw withdrawal threshold (STZ DNP rats [1]; 2.5 mg/kg PO daily): +++ (+++ indicates p < 0.001 vs disease control.)
- Efficacy: rescue of mechanical allodynia behavior as measured by paw withdrawal threshold (STZ DNP rats [1]; 10 mg/kg PO daily): +++ (+++ indicates p < 0.001 vs disease control.)
- rescue of the mechanical allodynia behavior as measured by paw withdrawal threshold (STZ DNP rats [1]): significant rescue
- Efficacy: rescue of thermal hyperalgesia behavior as measured by paw withdrawal latency (STZ DNP rats [2]; 0.156 mg/kg PO daily): NS
- Efficacy: rescue of thermal hyperalgesia behavior as measured by paw withdrawal latency (STZ DNP rats [2]; 0.625 mg/kg PO daily): NS
- Efficacy: rescue of thermal hyperalgesia behavior as measured by paw withdrawal latency (STZ DNP rats [2]; 2.5 mg/kg PO daily): ++ (++ indicates p < 0.01 vs disease control.)
- Efficacy: rescue of thermal hyperalgesia behavior as measured by paw withdrawal latency (STZ DNP rats [2]; 10 mg/kg PO daily): +++ (+++ indicates p < 0.001 vs disease control.)
- rescue of thermal allodynia behavior as measured by paw withdrawal latency (STZ DNP rats [2]): significant rescue

Molecule: HGF: recombinant hepatocyte growth factor (HGF), added at low doses with or without Compound 5a
- Significant promotion of Myelination of Sensory neurons by Schwann Cells ([3]; HGF 0.05 ng/ml alone): NS
- Significant promotion of Neurite Network Extension of Sensory Neurons ([3]; HGF 0.05 ng/ml alone): NS
- Significant promotion of Myelination of Sensory neurons by Schwann Cells ([3]; HGF 5 ng/ml alone): NS
- Significant promotion of Neurite Network Extension of Sensory Neurons ([3]; HGF 5 ng/ml alone): NS
- myelination [3, 7]: did not significantly promote
- neurite network extension [3, 7]: did not significantly promote
- Significant promotion of Myelination of Sensory neurons by Schwann Cells ([4]; HGF 0.05 ng/ml alone): NS
- Significant promotion of Neurite Network Extension of Sensory Neurons ([4]; HGF 0.05 ng/ml alone): NS
- Significant promotion of Myelination of Sensory neurons by Schwann Cells ([4]; HGF 5 ng/ml alone): NS
- Significant promotion of Neurite Network Extension of Sensory Neurons ([4]; HGF 5 ng/ml alone): NS
- myelination [4, 8]: did not significantly promote
- neurite network extension [4, 8]: did not significantly promote

— US20250275975A1, “Methods of Treating Neuropathies” (Athira Pharma, Inc., priority 2023, published 2025)
